Values joined by “and” are separate entries in the source; they are usually repeats but may differ in a detail not shown here. Equal values may be shown once.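 Values below derive from 48-hour exposures of cells grown in 96-well plates, with endpoints linearly interpolated between the two concentrations bracketing the appropriate inhibition level. Here, GI50 denotes the concentration required for 50% inhibition of growth. TGI denotes the concentration required for complete inhibition of growth.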
Tests used:
Assay in all cases: NCI tumour cell line growth inhibition, 48 h
M14 melanoma = tested on: M14 melanoma
SNB-75 CNS = tested on: SNB-75 CNS
HS 578T breast = tested on: HS 578T breast
HOP-62 NSCLC = tested on: HOP-62 NSCLC
LOX IMVI melanoma = tested on: LOX IMVI melanoma
NCI-H460 lung = tested on: NCI-H460 lung
KM12 colon = tested on: KM12 colon
IGROV1 ovarian = tested on: IGROV1 ovarian
HOP-92 NSCLC = tested on: HOP-92 NSCLC
SF-295 CNS = tested on: SF-295 CNS

SMILES | TGI (M14 melanoma) | TGI (SNB-75 CNS) | TGI (HS 578T breast) | TGI (HOP-62 NSCLC) | TGI (LOX IMVI melanoma) | TGI (NCI-H460 lung) | TGI (KM12 colon) | TGI (IGROV1 ovarian) | TGI (HOP-92 NSCLC) | TGI (SF-295 CNS) | GI50 (M14 melanoma) | GI50 (SNB-75 CNS) | GI50 (HS 578T breast) | GI50 (HOP-62 NSCLC) | GI50 (LOX IMVI melanoma) | GI50 (NCI-H460 lung) | GI50 (KM12 colon) | GI50 (IGROV1 ovarian) | GI50 (HOP-92 NSCLC) | GI50 (SF-295 CNS)
O=c1ccs[nH]1 | 26.2 µM | 36.5 µM | 49.7 µM | 38.6 µM | 18.4 µM | 34.3 µM | 62.1 µM | 66.5 µM | 32.2 µM | 54.2 µM | – | – | – | – | – | – | – | – | – | –
C#CC1(OC(C)=O)CCC2C3CC=C4C=C(OC(C)=O)CCC4(C)C3CCC21C (stereo not drawn) | 70.3 µM | > 100 µM | > 100 µM | > 100 µM | 53.2 µM | 61.8 µM | 40.2 µM | 35.9 µM | 32.9 µM | 62 µM | – | – | – | – | – | – | – | – | – | –
COc1cccc(/C=C/[N+](=O)[O-])c1 | 4.63 µM | 27.9 µM | 55.5 µM | 26.6 µM | 3.12 µM | 38.8 µM | 7.35 µM | 6.51 µM | 34.6 µM | 13.4 µM | 2.01 µM | 12.4 µM | 15.8 µM | 12.8 µM | 1.66 µM | 15.1 µM | 2.54 µM | 2.4 µM | 15.9 µM | 3.07 µM
COc1ccc(/C(COc2ccc3c(=O)c(-c4ccccc4)coc3c2)=N\O)cc1 | 23.8 µM | > 70.9 µM | 44.6 µM | 33.7 µM | > 45.9 µM | 31.7 µM | 40.4 µM | 38.3 µM | 47 µM | 25.5 µM | 8.49 µM | 14.5 µM | 3.79 µM | 8.52 µM | 4.73 µM | 4 µM | 1.5 µM | 7.37 µM | 8.83 µM | 2.59 µM
CC1=C(C(=O)Nc2ccc(Cl)c(Cl)c2)C(c2cccc(Cl)c2)NC(=O)N1 (stereo not drawn) | 16.1 µM | 28.7 µM | 22.6 µM | 20.5 µM | 16.2 µM | 20.1 µM | 2.48 µM | 21.6 µM | > 28.7 µM | 5.12 µM | 7.79 µM | 9.67 µM | 9.68 µM | 10.4 µM | 7.66 µM | 8.5 µM | 0.239 µM | 7.51 µM | 18.3 µM | 1.04 µM
Cc1ccc2c(-c3ccnc(Nc4ccccc4)n3)c(-c3ccc(F)cc3)nn2n1 | > 25 µM | > 25 µM | > 25 µM | > 25 µM | > 25 µM | 15.1 µM | > 25 µM | 16.5 µM | > 25 µM | > 25 µM | 9.56 µM | > 8.35 µM | 8.51 µM | 19.4 µM | 5.92 µM | 5.24 µM | 7.05 µM | 1.13 µM | 3.33 µM | 11.3 µM
Cc1ccc(Cc2cnc(NC(=O)/C=C/c3cccc(C)c3)s2)cc1 | 0.843 µM | 0.845 µM | 5.86 µM | 9.3 µM | 7.4 µM | 11.8 µM | > 48.4 µM | 15.5 µM | > 57 µM | 0.558 µM | 0.0808 µM | 0.104 µM | 0.212 µM | 0.238 µM | 0.124 µM | 0.064 µM | 0.14 µM | 0.334 µM | 0.0793 µM | 0.0786 µM
CC(=C/C=C/C=C(C)\C=C\C=C(\C)C(=O)O)/C=C/C=C(/C)C(=O)O | > 100 µM | > 100 µM | > 100 µM | > 100 µM | > 100 µM | > 100 µM | > 100 µM | > 100 µM | > 100 µM | > 100 µM | – | – | – | – | – | – | – | – | – | –
COc1cc2ncn(-c3cc(O[C@@H](C)c4ccccc4Cl)c(C(N)=O)s3)c2cc1OC | > 25 µM | > 25 µM | 13.4 µM | > 25 µM | > 25 µM | > 25 µM | > 25 µM | > 25 µM | > 25 µM | > 25 µM | 1.76 µM | 3.86 µM | 2.11 µM | 0.744 µM | 1.05 µM | 0.949 µM | 0.559 µM | 3.69 µM | 4.67 µM | 1.25 µM
O=C1c2ccccc2-c2oc(=O)c3ccccc3c21 | > 100 µM | > 100 µM | > 100 µM | > 100 µM | > 100 µM | > 100 µM | > 100 µM | > 100 µM | > 100 µM | > 100 µM | – | – | – | – | – | – | – | – | – | –
C=C(CN1CCN(c2cccc(C(F)(F)F)n2)CC1)c1ccc(C(=O)Nc2ccccc2N)cc1 | > 100 µM | 12.2 µM and 2.19 µM | – | 21.4 µM and 7.51 µM | > 100 µM | > 100 µM | > 100 µM | 26.9 µM and 7.29 µM | 43.9 µM | – | 0.966 µM and 0.436 µM | 0.673 µM and 0.21 µM | 0.448 µM and 0.194 µM | 2.21 µM and 0.877 µM | 1.5 µM and 0.496 µM | 0.64 µM and 0.37 µM | 0.668 µM and 0.455 µM | 2.01 µM and 0.365 µM | 2 µM | 0.387 µM and 0.191 µM
COc1cc2c(cc1OC)-c1ccc3cc4c(cc3c1N(CCCn1ccnc1)C2)OCO4 | 15.6 µM | 19.6 µM | 40 µM | 13.6 µM | 4.7 µM | 11.3 µM | 31.8 µM | 29.9 µM | 32.5 µM | 75.6 µM | 3.5 µM | 1.75 µM | 5.75 µM | 2.03 µM | 1.62 µM | 0.527 µM | 6.05 µM | 3.61 µM | 3.58 µM | 2.8 µM
O=C(O)CCCSc1ccccc1 | > 100 µM | > 100 µM | > 100 µM | > 100 µM | > 100 µM | > 100 µM | > 100 µM | > 100 µM | > 100 µM | > 100 µM | – | – | – | – | – | – | – | – | – | –
C=C1C(=O)O[C@H]2[C@H]1CC/C(COC(=O)C(=O)c1cn(C)c3ccc(Cl)cc13)=C\CC[C@@]1(C)O[C@@H]21 | 2.74 µM | 3.8 µM | 17.6 µM | 3.02 µM | 0.387 µM | 6.75 µM | 7.46 µM | 2.78 µM | 3.62 µM | 10.3 µM | 1.11 µM | 1.61 µM | 3.14 µM | 1.33 µM | 0.191 µM | 2.28 µM | 2.48 µM | 1.17 µM | 1.72 µM | 2.88 µM
